Assay results published in patent US6815460B2, “Process for preparing prodrugs of benzenesulfonamide-containing cox-2 inhibitors” (Pharmacia Corporation, priority 1996, dated 2004).
Where a name gives a salt, the structure may show the parent alone.

SMILES | melting point
CCC(=O)NS(=O)(=O)c1ccc(-c2c(C)c(C)nn2-c2ccccc2)cc1 [Example 68, N-[[4-[3,4-Dimethyl-1-phenyl-1H-pyrazol-5-yl]phenyl]sulfonyl]propanamide] | 187.4 to 188.7 °C
Cc1onc(-c2ccccc2)c1-c1ccc(S(=O)(=O)NC(=O)C(C)(C)C)cc1 [Example 21, 2,2-Dimethyl-N-[[4-(5-methyl-3-phenylisoxazol-4-yl)phenyl]sulfonyl]propanamide] | 190.5 to 191.1 °C
COc1ccc2c(c1F)CSc1c(C(F)F)nn(-c3ccc(S(=O)(=O)NC(C)=O)cc3)c1-2.[Na] | > 300 °C
Cc1onc(-c2ccccc2)c1-c1ccc(S(=O)(=O)NCC(=O)[O-])cc1.[Na+] [Example 80, N-[[4-(5-Methyl-3-phenylisoxazol-4-yl)phenyl]sulfonyl]glycine, Sodium Salt] | 216 °C (dec.)
CC(=O)NS(=O)(=O)c1ccc(-n2cc(C(F)(F)F)nc2-c2cccnc2C)cc1 [Example 5, N-[[4-[2-(2-Methylpyridin-3-yl)-4-(trifluoromethyl)-1H-imidazol-1-yl]phenyl]sulfonyl]acetamide] | 243 to 245 °C
Cc1onc(-c2ccccc2)c1-c1ccc(S(=O)(=O)NC(=O)OC(C)(C)C)cc1 [Example 62, 1,1-Dimethylethyl N-[[4-(5-methyl-3-phenylisoxazol-4-yl)phenyl]sulfonyl]carbamate] | 168 to 171 °C
COC(=O)C(=O)NS(=O)(=O)c1ccc(-c2c(-c3ccccc3)noc2C)cc1 [Example 50, Methyl [[[4-(5-methyl-3-phenylisoxazol-4-yl)phenyl]sulfonyl]amino]oxoacetate] | 171.1 to 172.3 °C
CC(=O)NS(=O)(=O)c1ccc(-c2c(-c3ccccc3)noc2COC(C)=O)cc1 [Example 73, N-[[4-[5-Acetoxymethyl-3-phenylisoxaxzol-4-yl]phenyl]sulfonyl]acetamide] | 137 to 139 °C
CCC(=O)NS(=O)(=O)c1ccc(-c2c(-c3ccccc3)noc2C(F)F)cc1 [Example 54, N-[[4-[5-(Difluoromethyl)-3-phenylisoxazol-4-yl]phenyl]sulfonyl]propanamide] | 136.9 to 141 °C
CC(=O)NCC(=O)NS(=O)(=O)c1ccc(-c2c(-c3ccccc3)noc2C)cc1 [Example 82, 2-(Acetylamino)-N-[[4-(5-methyl-3-phenylisoxazol-4-yl)phenyl]sulfonyl]acetamide] | 218.2 to 219.3 °C
CC(=O)NS(=O)(=O)c1ccc(-c2oc(C)nc2-c2ccccc2)cc1 (as salt: sodium) [Example 49, N-[[4-(2-Methyl-4-phenyloxazol-5-yl)phenyl]sulfonyl]acetamide, Sodium Salt] | 259.9 to 260 °C
Cc1onc(-c2ccccc2)c1-c1ccc(S(=O)(=O)NCC(=O)O)cc1.O=C(O)O [Example 79, N-[[4-(5-Methyl-3-phenylisoxazol-4-yl)phenyl]sulfonyl]glycine] | 242 to 248 °C
CC(=O)NS(=O)(=O)c1ccc(-c2c(-c3cccc(F)c3)noc2C)cc1 (as salt: sodium) [Example 13, N-[[4-[3-(3-Fluorophenyl)-5-methylisoxazol-4-yl]phenyl]sulfonyl]acetamide] | 112 to 131 °C
CCCC(=O)NS(=O)(=O)c1ccc(-n2cc(C(F)(F)F)nc2-c2cncc(C)c2)cc1 [Example 7, N-[[4-[2-(5-Methylpyridin-3-yl)-4-(trifluoromethyl)-1H-imidazol-1-yl]phenyl]sulfonyl]butanamide] | 203 to 204 °C
CC(=O)NS(=O)(=O)c1ccc(-c2oc(C)nc2-c2ccccc2)cc1 [Example 48, N-[[4-(2-Methyl-4-phenyloxazol-5-yl)phenyl]sulfonyl]acetamide] | 220.7 to 221 °C
Cc1onc(-c2ccccc2)c1-c1ccc(S(=O)(=O)NC(=O)c2ccccc2)cc1 [Example 19, N-[[4-(5-Methyl-3-phenylisoxazol-4-yl)phenyl]sulfonyl]benzamide] | 208.8 to 210.2 °C
COc1ccc(-c2cc(C(F)F)nn2-c2ccc(S(=O)(=O)NC(C)=O)cc2)cc1F [Example 46, N-[[4-[3-(Difluoromethyl)-5-(3-fluoro-4-methoxyphenyl)-1H-pyrazol-1-yl]phenyl]sulfonyl]acetamide] | 173 to 175 °C
CNS(=O)(=O)c1ccc(C2=C(c3ccc(F)cc3)CCC2)cc1 [Example 64, 4-[2-(4-Fluorophenyl)cyclopenten-1-yl]-N-methylbenzenesulfonamide] | 121 to 122 °C
CC(=O)NS(=O)(=O)c1ccc(-n2cc(C(F)(F)F)nc2-c2cncc(C)c2)cc1 [Example 3, N-[[4-[2-(5-Methylpyridin-3-yl)-4-(trifluoromethyl)-1H-imidazol-1-yl]phenyl]sulfonyl]acetamide] | 268 to 270 °C
Cc1onc(-c2ccccc2)c1-c1ccc(S(=O)(=O)NC=O)cc1 [Example 60, N-[[4-(5-Methyl-3-phenylisoxazol-4-yl)phenyl]sulfonyl]formamide] | 111 to 122 °C
COC(=O)CCC(=O)NS(=O)(=O)c1ccc(-c2c(-c3ccccc3)noc2C)cc1 [Example 23, Methyl 4-[[[4-(5-methyl-3-phenylisoxazol-4-yl]phenyl]sulfonyl]amino]-4-oxobutanoate] | 114.9 to 117.7 °C
CC(=O)NS(=O)(=O)c1ccc(-c2c(-c3ccccc3)noc2C)cc1.[K] | 279.7 to 283.7 °C
CCC(=O)NS(=O)(=O)c1ccc(-n2nc(C(F)(F)F)cc2-c2ccc(Cl)cc2)cc1 [Example 33, N-[[4-[5-(4-Chlorophenyl)-3-(trifluoromethyl)-1H-pyrazol-1-yl]phenyl]sulfonyl]propanamide] | 77.9 to 85.1 °C
CC(=O)NS(=O)(=O)c1ccc(-c2c(-c3ccccc3)noc2CO)cc1 [Example 74, N-[[4-[5-Hydroxymethyl-3-phenylisoxaxzol-4-yl]phenyl]sulfonyl]acetamide] | 94 to 103 °C
Cc1onc(-c2ccccc2)c1-c1ccc(S(=O)(=O)NC(=O)CCC(=O)O)cc1 [Example 58, 4-[[[4-(5-Methyl-3-phenylisoxazol-4-yl)phenyl]sulfonyl]amino]-4-oxobutanoic Acid] | 158.4 to 165.4 °C
CCCC(=O)NS(=O)(=O)c1ccc(-c2c(-c3ccccc3)noc2C)cc1 [Example 24, N-[[4-(5-Methyl-3-phenylisoxazol-4-yl)phenyl]sulfonyl]butanamide] | 173.2 °C
CCC(=O)NS(=O)(=O)c1ccc(-c2c(-c3ccccc3)noc2CO)cc1.[Na] | 153.5 to 157.1 °C

Second part, the compound after the results:

melting point | SMILES
169.3 to 170.6 °C | CC(=O)NS(=O)(=O)c1ccc(-c2c(-c3ccccc3)noc2C)cc1 [Example 39, N-[[4-[5-Methyl-3-phenylisoxazol-4-yl]phenyl]sulfonyl]acetamide]
182.3 to 183.4 °C | CCC(=O)NS(=O)(=O)c1ccc(C2=C(c3ccccc3)COC2=O)cc1 [Example 83]
127 to 129 °C | CC(=O)NS(=O)(=O)c1ccc(C2=C(c3ccc(F)c(Cl)c3)CCC2)cc1 [Example 65, N-[[4-[2-(3-Chloro-4-fluorophenyl)cyclopenten-1-yl]phenyl]sulfonyl]acetamide]
232 to 235 °C | CC(=O)NS(=O)(=O)c1ccc(-n2cc(C(F)(F)F)nc2-c2cc(C)cc(Cl)c2)cc1 [Example 11, N-[[4-[2-(3-Chloro-5-methylphenyl)-4-(trifluoromethyl)-1H-imidazol-1-yl]phenyl]sulfonyl]acetamide]
154.9 to 155.9 °C | CCCC(=O)NS(=O)(=O)c1ccc(-c2c(-c3ccccc3)noc2C(F)F)cc1 [Example 56, N-[[4-[5-(Difluoromethyl)-3-phenylisoxazol-4-yl]phenyl]sulfonyl]butanamide]
269.8 to 272 °C | CC(=O)NS(=O)(=O)c1ccc(-n2nc(C(F)(F)F)cc2-c2ccc(Cl)cc2)cc1.[Na]
273.5 to 277.7 °C | CCCC(=O)NS(=O)(=O)c1ccc(-c2c(-c3ccccc3)noc2C)cc1 (as salt: sodium) [Example 25, N-[[4-(5-Methyl-3-phenylisoxazol-4-yl)phenyl]sulfonyl]butanamide, Sodium Salt]
207.2 to 210 °C | CCOCC(=O)NS(=O)(=O)c1ccc(-c2c(-c3ccccc3)noc2C)cc1.[Na]
230.7 to 234.7 °C | Cc1onc(-c2ccccc2)c1-c1ccc(S(=O)(=O)NC(=O)CN)cc1 [Example 81, 2-Amino-N-[[4-(5-methyl-3-phenylisoxazol-4-yl)phenyl]sulfonyl]acetamide]
244 to 246 °C | CC(=O)NS(=O)(=O)c1ccc(-n2cc(C(F)(F)F)nc2-c2cccnc2)cc1 [Example 1, N-[[4-[2-(3-Pyridinyl)-4-(trifluoromethyl)-1H-imidazol-1-yl]phenyl]sulfonyl]acetamide]
183 to 191.1 °C | COc1ccc2c(c1F)CSc1c(C(F)(F)F)nn(-c3ccc(S(=O)(=O)NC(C)=O)cc3)c1-2.[Na]
115 to 115.6 °C | Cc1onc(-c2ccccc2)c1-c1ccc(S(=O)(=O)NC(=O)C(C)C)cc1 [Example 15, 2-Methyl-N-[[4-(5-methyl-3-phenylisoxazol-4-yl)phenyl]sulfonyl]propanamide]
250 to 252 °C | CCCC(=O)NS(=O)(=O)c1ccc(-n2cc(C(F)(F)F)nc2-c2cccnc2C)cc1 [Example 9, N-[[4-[2-(2-Methylpyridin-3-yl)-4-(trifluoromethyl)-1H-imidazol-1-yl]phenyl]sulfonyl]butanamide]
278 to 281 °C | CC(=O)[N-]S(=O)(=O)c1ccc(-n2cc(C(F)(F)F)nc2-c2cncc(C)c2)cc1.[Na+] [Example 4, N-[[4-[2-(5-Methylpyridin-3-yl)-4-(trifluoromethyl)-1H-imidazol-1-yl]phenyl]sulfonyl]acetamide, Sodium Salt]
298 °C (dec.) | CCC(=O)[N-]S(=O)(=O)c1ccc(-n2cc(C(F)(F)F)nc2-c2cccnc2C)cc1.[Na+] [Example 85, N-[[4-(2-(2-Methylpyridin-3-yl)-4-trifluoromethylimidazol-1-yl]phenyl]sulfonyl]propanamide, Sodium Salt]
131.3 to 132.2 °C | CCOCC(=O)NS(=O)(=O)c1ccc(-c2c(-c3ccccc3)noc2C)cc1 [Example 31, 2-Ethoxy-N-[[4-(5-methyl-3-phenylisoxazol-4-yl)phenyl]sulfonyl]acetamide]
